One test deals with EGFR^L858R (Homo sapiens, UniProt P00533, L858R). Nature of the test: HTRF KinEASE-TK in vitro kinase assay, EGFR L858R (L). The note with it: EGFR L858R kinase inhibition. Type of test: biochemical. An excerpt:
(§1) The biological activity of compounds described herein can be studied according to standard methods known in the art. Methods can be used to study inhibition of EGFR, including mutant forms of EGFR comprising L858R, T790M, C797S, and/or Del19 mutations, or any combination thereof (e.g., L858R single, double, or triple mutants). Exemplary, non-limiting methods are described herein.
(§2) Assays using an in vitro kinase assay kit (HTRF KinEASE-TK kit) can be used to study the inhibitory activity of compounds described herein with respect to EGFR mutants such as ECFR^L858R, EGFR^L858R/T790M, and EGFR^L858R/T790M/C797S.
(§3) One hundred thirty six compounds were studied using the kinase (EGFR) and BA/F3 assays described herein, with more than 60% of the tested compounds providing IC50<50 nM values in all six assays. Accordingly, compounds of the invention are a new general class of kinase inhibitors, including potent inhibitors of EGFR mutants.
(§4) Exemplary kinase inhibition (Kinase) and anti-proliferation activity (Ba/F3) data are shown in Table 1 for certain compounds of the invention and are categorized according to the below legend.

Another test addresses EGFR^L858R/T790M/C797S (Homo sapiens, UniProt P00533, C797S/L858R/T790M). Nature of the test: HTRF KinEASE-TK in vitro kinase assay, EGFR L858R/T790M/C797S (LTC). Type of test: biochemical. The note with it: EGFR L858R/T790M/C797S kinase inhibition.
Description: as §1, §2, §3, §4

In another test the target is Ba/F3 EGFR-Del19/T790M (Homo sapiens, UniProt P00533, T790M, cells depend on it, form not given). Kind of test: Ba/F3 viability assay (CellTiter-Glo), EGFR-Del19/T790M (DT). In kind it is cell-based. The following applies: Ba/F3 EGFR-Del19/T790M anti-proliferation; read-out: BAF3 DT IC50.
Description: (§5) Inhibition of cell proliferation can be studied using Ba/F3 viability assays, including the Promega CellTiter-Glo cell viability assay. This assay can be used to study the effect of compounds described herein in the following assays: (1) Ba/F3 Parental; (2) Ba/F3 EGFR-Del19/T790M; (3); Ba/F3 EGFR-Del19/C797S; and (4) Ba/F3 EGFR-Del119/T790M/C797S.
as §3, §4

The target of test [1] is Ba/F3 EGFR-Del19/T790M/C797S (Homo sapiens, UniProt P00533, T790M/C797S, cells depend on it, form not given). Nature of the test: Ba/F3 viability assay (CellTiter-Glo), EGFR-Del19/T790M/C797S (DTC). Type of test: cell-based. The note with it: Ba/F3 EGFR-Del19/T790M/C797S anti-proliferation; read-out: BAF3 DTC IC50.
Chain of Ba/F3 EGFR-Del19/T790M/C797S (P00533 with tags, fused parts or gaps DEL746-750/T790M/C797S, form open): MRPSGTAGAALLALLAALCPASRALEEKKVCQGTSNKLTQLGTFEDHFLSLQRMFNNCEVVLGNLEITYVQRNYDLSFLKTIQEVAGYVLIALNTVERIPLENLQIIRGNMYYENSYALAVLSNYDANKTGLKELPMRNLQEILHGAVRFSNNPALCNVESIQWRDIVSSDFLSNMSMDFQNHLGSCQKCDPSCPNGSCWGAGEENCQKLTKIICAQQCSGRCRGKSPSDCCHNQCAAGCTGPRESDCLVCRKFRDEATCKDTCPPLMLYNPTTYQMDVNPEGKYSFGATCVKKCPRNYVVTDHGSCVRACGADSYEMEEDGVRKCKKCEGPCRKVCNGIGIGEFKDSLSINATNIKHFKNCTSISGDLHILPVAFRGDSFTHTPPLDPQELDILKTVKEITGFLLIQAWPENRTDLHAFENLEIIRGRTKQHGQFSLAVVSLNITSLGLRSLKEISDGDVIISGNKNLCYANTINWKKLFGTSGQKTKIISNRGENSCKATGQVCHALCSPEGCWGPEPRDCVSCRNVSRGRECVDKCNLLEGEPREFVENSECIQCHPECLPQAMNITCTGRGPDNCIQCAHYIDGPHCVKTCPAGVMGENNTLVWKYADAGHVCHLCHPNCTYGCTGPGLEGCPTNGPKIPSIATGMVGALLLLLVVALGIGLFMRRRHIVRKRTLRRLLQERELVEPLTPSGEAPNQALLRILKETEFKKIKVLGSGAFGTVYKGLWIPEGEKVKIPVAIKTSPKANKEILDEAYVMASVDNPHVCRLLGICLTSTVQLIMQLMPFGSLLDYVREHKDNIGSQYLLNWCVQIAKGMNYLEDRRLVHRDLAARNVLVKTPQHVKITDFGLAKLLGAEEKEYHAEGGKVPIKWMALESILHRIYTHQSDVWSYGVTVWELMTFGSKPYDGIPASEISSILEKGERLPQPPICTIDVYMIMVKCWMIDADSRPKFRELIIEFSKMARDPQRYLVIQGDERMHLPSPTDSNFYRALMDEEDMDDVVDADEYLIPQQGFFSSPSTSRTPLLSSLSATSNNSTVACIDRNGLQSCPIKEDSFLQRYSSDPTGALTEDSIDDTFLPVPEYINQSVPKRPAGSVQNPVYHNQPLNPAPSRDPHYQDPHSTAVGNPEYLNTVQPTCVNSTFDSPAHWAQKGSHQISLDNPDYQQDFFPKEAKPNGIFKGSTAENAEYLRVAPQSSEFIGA
Description: as §5, §3, §4

The target in the next test is Ba/F3 EGFR-Del19/C797S (Homo sapiens, UniProt P00533, C797S, cells depend on it, form not given). Nature of the test: Ba/F3 viability assay (CellTiter-Glo), EGFR-Del19/C797S (DC). Type of test: cell-based. The note with it: Ba/F3 EGFR-Del19/C797S anti-proliferation; read-out: BAF3 DC IC50.
Chain of Ba/F3 EGFR-Del19/C797S (P00533 with tags, fused parts or gaps DEL746-750/C797S, form open): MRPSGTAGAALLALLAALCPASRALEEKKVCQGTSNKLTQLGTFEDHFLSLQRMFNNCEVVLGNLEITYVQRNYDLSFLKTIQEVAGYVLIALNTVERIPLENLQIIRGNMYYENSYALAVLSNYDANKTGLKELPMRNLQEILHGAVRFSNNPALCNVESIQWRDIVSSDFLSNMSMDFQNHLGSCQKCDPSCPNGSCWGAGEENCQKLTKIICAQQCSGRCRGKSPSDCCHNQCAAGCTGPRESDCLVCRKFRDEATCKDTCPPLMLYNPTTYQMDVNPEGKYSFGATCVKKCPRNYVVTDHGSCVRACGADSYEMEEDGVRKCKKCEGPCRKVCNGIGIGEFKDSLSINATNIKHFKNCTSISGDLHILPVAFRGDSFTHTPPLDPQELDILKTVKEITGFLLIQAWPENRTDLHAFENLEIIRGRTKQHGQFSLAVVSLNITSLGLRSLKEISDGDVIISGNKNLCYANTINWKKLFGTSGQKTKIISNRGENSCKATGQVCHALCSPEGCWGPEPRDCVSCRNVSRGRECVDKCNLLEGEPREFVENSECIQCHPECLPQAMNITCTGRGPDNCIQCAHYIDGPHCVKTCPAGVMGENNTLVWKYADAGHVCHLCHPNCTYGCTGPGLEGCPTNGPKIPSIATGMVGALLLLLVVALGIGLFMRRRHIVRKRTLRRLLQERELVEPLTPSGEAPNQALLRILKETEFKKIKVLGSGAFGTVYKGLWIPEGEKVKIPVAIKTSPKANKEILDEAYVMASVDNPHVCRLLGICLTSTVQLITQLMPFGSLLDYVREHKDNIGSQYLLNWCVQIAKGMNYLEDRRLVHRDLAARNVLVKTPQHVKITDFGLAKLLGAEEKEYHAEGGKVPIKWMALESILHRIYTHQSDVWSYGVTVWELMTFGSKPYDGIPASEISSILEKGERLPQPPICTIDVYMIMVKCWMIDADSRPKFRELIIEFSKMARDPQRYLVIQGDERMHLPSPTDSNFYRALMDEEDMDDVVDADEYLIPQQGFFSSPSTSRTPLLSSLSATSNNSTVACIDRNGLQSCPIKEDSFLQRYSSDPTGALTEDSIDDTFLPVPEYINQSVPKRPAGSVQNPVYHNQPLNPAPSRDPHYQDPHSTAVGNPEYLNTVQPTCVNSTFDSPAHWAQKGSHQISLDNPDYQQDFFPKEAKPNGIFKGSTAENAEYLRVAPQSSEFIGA
Description: as §5, §3, §4

The next test concerns the target EGFR^L858R/T790M (Homo sapiens, UniProt P00533, L858R/T790M). Nature of the test: HTRF KinEASE-TK in vitro kinase assay, EGFR L858R/T790M (LT). In kind it is biochemical. The following applies: EGFR L858R/T790M kinase inhibition.
Description: as §1, §2, §3, §4

Data on six compounds can be found in patent US20240150375A1, “MACROCYCLIC COMPOUNDS AND USES THEREOF” (Theseus Pharmaceuticals, Inc., priority 2021, published 2024).

Where only a bound is given, the exact number is not on record here.

Chain of EGFR^L858R (P00533 25-1210 L858R): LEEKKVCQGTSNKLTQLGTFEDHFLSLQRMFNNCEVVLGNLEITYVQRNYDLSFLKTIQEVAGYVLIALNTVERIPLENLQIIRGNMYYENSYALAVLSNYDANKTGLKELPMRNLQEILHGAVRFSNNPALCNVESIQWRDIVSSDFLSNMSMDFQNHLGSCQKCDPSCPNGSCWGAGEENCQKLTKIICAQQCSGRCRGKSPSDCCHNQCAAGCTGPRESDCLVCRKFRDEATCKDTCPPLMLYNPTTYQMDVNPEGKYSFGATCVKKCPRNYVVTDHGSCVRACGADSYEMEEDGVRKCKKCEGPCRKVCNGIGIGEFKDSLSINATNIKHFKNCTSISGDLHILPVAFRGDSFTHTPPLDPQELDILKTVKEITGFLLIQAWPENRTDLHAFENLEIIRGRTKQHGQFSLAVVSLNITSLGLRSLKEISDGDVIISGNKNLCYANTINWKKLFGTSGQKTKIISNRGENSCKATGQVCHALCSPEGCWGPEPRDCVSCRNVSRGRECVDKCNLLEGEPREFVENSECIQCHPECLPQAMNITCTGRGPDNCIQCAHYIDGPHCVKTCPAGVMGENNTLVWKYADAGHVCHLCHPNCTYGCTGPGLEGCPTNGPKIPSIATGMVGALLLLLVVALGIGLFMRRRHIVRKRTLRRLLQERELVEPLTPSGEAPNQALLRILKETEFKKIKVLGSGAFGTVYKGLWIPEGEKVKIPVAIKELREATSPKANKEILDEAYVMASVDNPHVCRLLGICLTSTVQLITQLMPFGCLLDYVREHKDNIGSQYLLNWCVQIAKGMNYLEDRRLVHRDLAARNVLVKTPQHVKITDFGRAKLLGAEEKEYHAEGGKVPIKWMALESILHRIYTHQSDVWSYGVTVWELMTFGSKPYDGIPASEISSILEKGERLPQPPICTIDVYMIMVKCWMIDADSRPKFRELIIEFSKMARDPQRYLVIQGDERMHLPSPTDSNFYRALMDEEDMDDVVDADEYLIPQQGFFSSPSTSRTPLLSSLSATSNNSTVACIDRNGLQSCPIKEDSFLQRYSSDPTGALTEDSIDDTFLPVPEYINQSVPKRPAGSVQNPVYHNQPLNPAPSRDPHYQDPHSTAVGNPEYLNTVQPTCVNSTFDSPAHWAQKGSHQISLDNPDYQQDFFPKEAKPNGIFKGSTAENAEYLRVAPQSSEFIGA
Chain of EGFR^L858R/T790M/C797S (P00533 25-1210 T790M/C797S/L858R): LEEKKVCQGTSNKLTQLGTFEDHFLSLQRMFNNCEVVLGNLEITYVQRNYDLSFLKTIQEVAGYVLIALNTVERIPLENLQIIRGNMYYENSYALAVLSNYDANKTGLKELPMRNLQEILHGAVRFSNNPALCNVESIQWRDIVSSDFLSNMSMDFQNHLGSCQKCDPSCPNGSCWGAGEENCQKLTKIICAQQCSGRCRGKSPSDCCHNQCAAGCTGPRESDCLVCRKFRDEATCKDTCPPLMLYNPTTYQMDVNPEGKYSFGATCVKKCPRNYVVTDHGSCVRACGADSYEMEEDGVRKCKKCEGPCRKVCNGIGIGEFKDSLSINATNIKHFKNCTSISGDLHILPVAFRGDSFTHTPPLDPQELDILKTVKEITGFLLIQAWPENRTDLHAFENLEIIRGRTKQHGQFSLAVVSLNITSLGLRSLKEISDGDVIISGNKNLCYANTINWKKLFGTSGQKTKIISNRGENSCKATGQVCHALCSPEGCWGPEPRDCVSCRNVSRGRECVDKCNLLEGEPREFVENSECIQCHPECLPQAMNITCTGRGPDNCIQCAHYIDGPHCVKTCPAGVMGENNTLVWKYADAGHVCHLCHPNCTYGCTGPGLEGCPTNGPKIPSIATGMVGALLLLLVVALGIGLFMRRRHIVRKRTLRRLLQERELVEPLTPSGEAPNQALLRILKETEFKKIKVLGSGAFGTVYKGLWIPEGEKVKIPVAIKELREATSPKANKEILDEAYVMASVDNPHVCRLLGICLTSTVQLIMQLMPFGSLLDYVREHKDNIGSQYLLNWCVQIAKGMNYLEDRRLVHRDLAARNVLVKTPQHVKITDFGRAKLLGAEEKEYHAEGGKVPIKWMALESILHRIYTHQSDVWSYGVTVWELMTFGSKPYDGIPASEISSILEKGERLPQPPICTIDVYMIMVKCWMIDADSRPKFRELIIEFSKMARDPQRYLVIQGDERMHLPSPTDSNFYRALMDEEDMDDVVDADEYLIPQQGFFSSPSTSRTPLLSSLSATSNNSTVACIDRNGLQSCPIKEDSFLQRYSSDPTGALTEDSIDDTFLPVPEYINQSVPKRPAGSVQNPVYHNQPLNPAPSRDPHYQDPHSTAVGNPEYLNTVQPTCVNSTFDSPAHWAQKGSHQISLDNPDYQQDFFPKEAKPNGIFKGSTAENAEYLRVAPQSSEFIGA

Regarding `C[C@H]1CCOc2c(cnn2C)-c2nccc(n2)Nc2cc(c(Cl)cn2)O1` [(151), (10S)-13-chloro-5,10-dimethyl-7,11-dioxa-4,5,15,17,21,22-hexazatetracyclo[16.3.1.112,16.02,6]tricosa-1(22),2(6),3,12(23),13,15,18,20-octaene], the IC50 was 0.05 to 0.1 µM on EGFR^L858R, less than 0.05 µM on EGFR^L858R/T790M/C797S and less than 0.05 µM at EGFR^L858R/T790M. Besides, the GI50 (at Ba/F3 EGFR-Del19/T790M; in test [1]; at Ba/F3 EGFR-Del19/C797S) was 0.1 to 1 µM each time.
Consider `C[C@H]1CCOc2c(cnn2C)-c2nccc(n2)Nc2cc(c(-c3ccc(N4CCN(C)CC4)nc3)cn2)O1` [(152)], for which the half-inhibitory concentration (IC50) on EGFR^L858R, at EGFR^L858R/T790M/C797S and at EGFR^L858R/T790M was less than 0.05 µM each time. Also, the GI50 (on Ba/F3 EGFR-Del19/T790M; in test [1]; at Ba/F3 EGFR-Del19/C797S) was less than 0.05 µM throughout.
As to `C[C@H]1CCOc2c(cnn2C)-c2nccc(n2)Nc2cc(ccn2)O1` [(153)], the concentration for half-maximal inhibition (IC50) at EGFR^L858R was 0.1 to 1 µM; at EGFR^L858R/T790M/C797S it was less than 0.05 µM; on EGFR^L858R/T790M, less than 0.05 µM. Further, the GI50 (at Ba/F3 EGFR-Del19/T790M; in test [1]; at Ba/F3 EGFR-Del19/C797S) was 0.1 to 1 µM throughout.
`C[C@H]1CCOc2c(cnn2C)-c2nccc(n2)Nc2cc(c(-c3cccc(CN4CCN(C)CC4)c3)cn2)O1` [(159)]: the IC50 at EGFR^L858R, at EGFR^L858R/T790M/C797S and at EGFR^L858R/T790M was less than 0.05 µM each time. Moreover, the GI50 (at Ba/F3 EGFR-Del19/T790M; in test [1]; at Ba/F3 EGFR-Del19/C797S) was less than 0.05 µM each time.
For `C[C@H]1CCOc2c(cnn2C)-c2nccc(n2)Nc2cc(c(-c3ccc(CN4CCN(C)CC4)cc3)cn2)O1` [(160)], the IC50 at EGFR^L858R, on EGFR^L858R/T790M/C797S and on EGFR^L858R/T790M was less than 0.05 µM each time. For the same compound, the GI50 (at Ba/F3 EGFR-Del19/T790M; in test [1]; at Ba/F3 EGFR-Del19/C797S) was less than 0.05 µM in each case.
For the compound `CC1CCOc2c(cnn2C)-c2nccc(n2)Nc2cc(c(-c3ccc(CN4CCN(C)CC4)cc3)cn2)O1` (stereo not drawn) [(169), 5,10-dimethyl-13-[4-[(4-methylpiperazin-1-yl)methyl]phenyl]-7,11-dioxa-4,5,15,17,21,22-hexazatetracyclo[16.3.1.112,16.02,6]tricosa-1(22),2(6),3,12(23),13,15,18,20-octaene], the half-maximal inhibitory concentration (IC50) at EGFR^L858R, at EGFR^L858R/T790M/C797S and on EGFR^L858R/T790M was less than 0.05 µM in each case. Also, the GI50 (on Ba/F3 EGFR-Del19/T790M; in test [1]; on Ba/F3 EGFR-Del19/C797S) was less than 0.05 µM each time.
